Experimental data as given in patent US11400106B2, “Methods for inhibiting microbe growth” (priority 2018, dated 2022).
Like-named read-outs stand apart in the source and are kept apart here.

Key:
E. coli [1] = experiment: Checkerboard microdilution with sodium bicarbonate against E. coli; format: cell-based, Escherichia coli
Experimental: (§1) In the following experiments, bacterial cells were cultured in 96-well microtiter plates in cation-adjusted Mueller-Hinton Broth (MHB) for 18 h at 37° C. The main strains used were E. coli (K-12 BW25113) (placed in stationary incubator) and S. aureus (Newman Strain) (incubated at 250 r.p.m). Knockout strains (ΔtolcC and ΔychM) were used from the Keio knockout collection (Baba et al., Construction of Escherichia coli K-12 in-frame, single-gene knockout mutants: the Keio collection. Mol Syst Biol 2, 2006 0008, doi:10.1038/msb4100050 (2006)). For MIC determination and checkerboard analyses, Clinical & Laboratory Standards Institute (CLSI) protocol was used. […] DiSC3 loading of S. aureus cells was performed as previously described (Farha et al., Collapsing the proton motive force to identify synergistic combinations against Staphylococcus aureus. Chemistry & biology 20, 1168-1178, doi:10.1016/j.chembiol.2013.07.006 (2013)). CCCP concentration of 20 μM was used. pH adjustments were made by addition of HCl or NaOH. INT assay and ATP bioluminescence assays were performed as previously described (Farha et al., Collapsing the proton motive force to identify synergistic combinations against Staphylococcus aureus. Chemistry & biology 20, 1168-1178, doi:10.1016/j.chembiol.2013.07.006 (2013)). For chemical-genomic studies, the Keio library was grown overnight in cation-adjusted MHB broth, in 384-well plates. From these, treatment plates (25 mM sodium bicarbonate, or a sterile water control) were inoculated and grown for 15 hours at 37° C., in a stationary incubator. Data was normalized according to Mangat et al (Mangat et al., Rank ordering plate data facilitates data visualization and normalization in high-throughput screening. J Biomol Screen 19, 1314-1320, doi:10.1177/1087057114534298 (2014)), with gene products and GO terms mined from EcoCyc. The GFP promoter library (Keseler et al., EcoCyc: fusing model organism databases with systems biology. Nucleic Acids Res 41, D605-612, doi:10.1093/nar/gks1027 (2013)) was grown for 18 hours at ambient temperature with the same inoculation strategy as with the Keio collection. The analysis pipeline of Zaslaver et al (Zaslaver et al., A comprehensive library of fluorescent transcriptional reporters for Escherichia coli. Nat Methods 3, 623-628, doi:10.1038/nmeth895 (2006)) was used to generate maps of promoter activity, from which lists of promoters with increased or decreased activity were compiled.
(§2) The effect of sodium bicarbonate on the activity of various antibacterial agents was investigated. Clinical isolates of various bacteria were obtained from the American Type Culture Collection (“ATCC”) and the International Health Management Associates (“IHMA”). Fractional inhibitory concentration indices (FICIs) were determined by setting up standard checkerboard broth microdilution assays in 96-well microtiter plates with serially diluted 8 (or 10) concentrations of each drug (sodium bicarbonate and the antibacterial agent). The protocol for checkerboard analyses was based on the CLSI guidelines. Plates were incubated at 37° C. for 18 hours, and optical density was read at 600 nm. At least 3 replicates were done for each query compound.
(§3) The FIC index (FICI) is the sum of the two FICs. Chemical-chemical interactions with ΣFIC of less or equal to 0.5 were deemed synergistic.
(§4) As validation, three of the antibiotic agents were further tested with checkerboard analyses. Checkerboard broth microdilution assays were set up in 96-well microtiter plates with serially diluted 8 (or 10) concentrations of each compound (sodium bicarbonate and the antibiotic). The protocol for checkerboard analyses was based on the CLSI guidelines. Plates were incubated at 37° C. for 18 hours, and optical density was read at 600 nm. At least 3 replicates were done for each query compound.

S. aureus [2] = experiment: Checkerboard microdilution with nigericin; format: cell-based, Staphylococcus aureus
Description: Shown are microdilution checkerboard analyses, where the extent of inhibition is shown as a heat plot, such that the darkest checkerboard square represents full bacterial growth.

E. coli [3] = experiment: microbe, parasite or virus in culture; format: cell-based, Escherichia coli; details: for MIC: Escherichia coli, 18 h, read-out: MIC, E. coli, MHB−
S. aureus [4] = experiment: microbe, parasite or virus in culture; details: for effect of 25 mM sodium bicarbonate on antibacterial activity: S. aureus, result in words; for MIC: Staphylococcus aureus, 18 h, read-out: MIC, S. aureus, MHB−
S. aureus [5] = experiment: Checkerboard microdilution with sodium bicarbonate against S. aureus; format: cell-based, Staphylococcus aureus
Experimental: as §1, §2, §3, §4

P. aeruginosa = experiment: Susceptibility testing of P. aeruginosa clinical isolates (n=92); format: cell-based, Pseudomonas aeruginosa; details: P. aeruginosa (n=92); comparators in the absence of bicarbonate
Experimental: (§5) This study included one hundred (n=100) clinical isolates of methicillin-resistant Staphylococcus aureus (MRSA) and ninety-two (n=92) clinical isolates of P. aeruginosa. All samples were collected from patients at Hamilton Health Sciences hospitals (Hamilton, Ontario, Canada). Isolates, regardless of site of infection, were selected for study if they were resistant to three or more antibiotics. The isolates were cultured on plates and subsequently tested for antimicrobial susceptibility. Initial culture and antibiotic susceptibility testing were performed by Hamilton General Hospital General Microbiology Laboratory using a VITEK 2 Automated System and its Advanced Expert System (bioMerieux) and were compliant with Clinical & Laboratory Standards Institute (CLSI) antibiotic susceptibility testing formulations. Both quantitative minimum inhibitory concentration (MIC) and CLSI breakpoints were reported for each antibiotic. Additionally, a total of 7 conjunctival-sourced ocular isolates of Streptococcus pneumoniae collected by the International Health Management Associates (IHMA) from various locations in the United States were used in the study.
(§6) Antimicrobial sensitivity of the pathogenic strains was determined in compliance with the CLSI protocol. Mueller-Hinton agar plates were used to streak out bacterial species and the direct colony suspension method for inoculum preparation was used to make a suspension of the organism in saline to the density of a McFarland 0.5 turbidity standard. Cation-adjusted Mueller-Hinton broth (CA-MHB) manufactured according to ISO technical standard was used for susceptibility testing in standard 96-well microdilution plates. All antibiotics were purchased as powders from Sigma-Aldrich Canada Co. (Oakville, Canada) and dissolved in appropriate solvent to provide stock solutions as instructed by the manufacturer. Desired test antibiotic solutions were diluted in solvent at a highest test concentration resulting in 256 μg/mL. Where sodium bicarbonate was used, aqueous sterile-filtered sodium bicarbonate solution (7.5% stock) from Sigma-Aldrich Canada Co. (Oakville, Canada) was diluted to the desired concentration in CAMHB. Plates were incubated for 18 hours at 37° C. and read at 600 nm on a Tecan, infinite M1000 PRO plate reader. In accordance with CLSI, methods with appropriate medium supplements for fastidious streptococci (2.5% lysed horse blood, Innovative Research, Inc., Novi, Mich.) were used. […] All MICs in the study were conducted in duplicate.

[6] = system: methicillin-resistant Staphylococcus aureus (MRSA); experiment: Susceptibility testing of MRSA clinical isolates (n=100); format: cell-based; details: MRSA (n=100); comparators in the absence of bicarbonate
Experimental: as §5, §6

S. aureus [7] = experiment: FIC index of pentamidine combined with various salts (checkerboard); format: cell-based, Staphylococcus aureus; details: combination of pentamidine isethionate with each salt; FICI≤0.5 synergy, 1-2 additivity, >4 antagonism
Experimental: as §1

[8] = Description: PMF is driven in part by a transmembrane gradient where the periplasmic side of the membrane has a greater concentration of protons. Thus, the addition of buffering agents to alter the external pH can have a significant effect on PMF. […] Steps were taken throughout the studies to confirm that bicarbonate supplemented media were at pH 7.4, and adjusted where necessary.
[9] = MHB in the absence of sodium bicarbonate
[10] = antibiotic agents, MHB in the absence of sodium bicarbonate
[11] = E. coli, salt at 25 mM, pH adjusted to 7.4
[12] = antibiotic agents, fold shift in MIC, MHB− vs MHB+

## C[C@@H]1O[C@@H]1P(=O)(O)O [Fosfomycin]
E. coli [1]
  interaction with sodium bicarbonate (checkerboard): suppressed
S. aureus [2]
  interaction with nigericin (checkerboard): antagonistic interactions
E. coli [3]
  effect of 25 mM sodium bicarbonate on antibacterial activity: suppressed
E. coli [3]; [9]
  MIC: 4 µg/mL
S. aureus [4]
  MIC, S. aureus, MHB+: 64
  effect of 25 mM sodium bicarbonate on antibacterial activity: suppressed
  MIC: 16 µg/mL

## c1cc2c(cc1C1CCCCC1)c1c3n2CCN=C3CCC1 [I1]
S. aureus [5]
  interaction with sodium bicarbonate (checkerboard): synergistic interactions

## COc1ccc(-c2n(CC(=O)OC3CC(C)CCC3C(C)C)c3ccccc3[n+]2C)cc1.[Cl-] (stereo not shown) [I2]
S. aureus [5]
  interaction with sodium bicarbonate (checkerboard): synergistic interactions

## CC1=CCCC2C1CCC(C)C2(C)CC/C(C)=C/Cn1c[n+](C)c2c(N)ncnc21.[Cl-] (stereo not shown) [I3]
S. aureus [5]
  interaction with sodium bicarbonate (checkerboard): synergistic interactions

## COc1c(N2C[C@@H]3CCCN[C@@H]3C2)c(F)cc2c(=O)c(C(=O)O)cn(C3CC3)c12 [Moxifloxacin]
P. aeruginosa
  MIC90 comparison of topical ophthalmic antibiotics: resistance
[6]
  MIC90 comparison of topical ophthalmic antibiotics: resistance
E. coli [3]; [9]
  MIC: 0.0313 µg/mL
S. aureus [4]
  MIC: 0.125 µg/mL

## CO[C@@H]1[C@@H](OC(N)=O)[C@@H](O)[C@H](Oc2ccc3c(O)c(NC(=O)c4ccc(O)c(CC=C(C)C)c4)c(=O)oc3c2C)OC1(C)C [Novobiocin]
E. coli [1]
  interaction with sodium bicarbonate (checkerboard): suppressed
S. aureus [2]
  interaction with nigericin (checkerboard): antagonistic interactions
E. coli [3]
  effect of 25 mM sodium bicarbonate on antibacterial activity: suppressed
E. coli [3]; [9]
  MIC: 32 µg/mL
S. aureus [4]
  MIC, S. aureus, MHB+: 0.5
  effect of 25 mM sodium bicarbonate on antibacterial activity: suppressed
  MIC: 0.031 µg/mL

## CC[C@H]1OC(=O)[C@H](C)[C@@H](O[C@H]2C[C@@](C)(OC)[C@@H](O)[C@H](C)O2)[C@H](C)[C@@H](O[C@@H]2O[C@H](C)C[C@H](N(C)C)[C@H]2O)[C@](C)(O)C[C@@H](C)/C(=N\OCOCCOC)[C@H](C)[C@@H](O)[C@]1(C)O [Roxithromycin]
E. coli [1]
  interaction with sodium bicarbonate (checkerboard): synergistic interactions
E. coli [3]
  MIC, E. coli, MHB+: 16 μg of antimicrobial agent/mL of buffer
E. coli [3]; [10]
  MIC: > 128 µg/mL
S. aureus [4]
  MIC, S. aureus, MHB+: 0.5 μg of antimicrobial agent/mL of buffer
  MIC: 4 µg/mL
S. aureus [5]
  interaction with sodium bicarbonate (checkerboard): synergistic interactions

## [Cl-].[Na+] [Sodium chloride]
S. aureus [7]
  FIC Index (with pentamidine in S. aureus): 2
E. coli [3]; [11]
  MIC of dirithromycin in the presence of the salt: 128 µg/mL

## [F-].[Na+] [Sodium fluoride]
S. aureus [7]
  FIC Index (with pentamidine in S. aureus): 1
E. coli [3]; [11]
  MIC of dirithromycin in the presence of the salt: 128 µg/mL

## O=[N+]([O-])[O-].[Na+] [Sodium nitrate]
S. aureus [7]
  FIC Index (with pentamidine in S. aureus): 2
E. coli [3]; [11]
  MIC of dirithromycin in the presence of the salt: 128 µg/mL

## O=P(O)(O)O [Sodium phosphate]
S. aureus [7]
  FIC Index (with pentamidine in S. aureus): >8
E. coli [3]
  MIC of dirithromycin in the presence of the salt: >128 µg/mL

## O=S(=O)([O-])[O-].[Na+].[Na+] [Sodium sulfate]
S. aureus [7]
  FIC Index (with pentamidine in S. aureus): 2
E. coli [3]
  MIC of dirithromycin in the presence of the salt: 128 µg/mL

## [H]/N=C(/N)N[C@H]1[C@H](O)[C@@H](O)[C@H](O[C@@H]2O[C@@H](C)[C@](O)(C=O)[C@H]2O[C@@H]2O[C@@H](CO)[C@H](O)[C@@H](O)[C@@H]2NC)[C@@H](N/C(N)=N\[H])[C@@H]1O [Streptomycin]
E. coli [1]
  interaction with sodium bicarbonate (checkerboard): synergistic interactions
E. coli [3]
  MIC, E. coli, MHB+: 0.12 μg of antimicrobial agent/mL of buffer
E. coli [3]; [10]
  MIC: 0.5 µg/mL
S. aureus [4]
  MIC, S. aureus, MHB+: 0.5 μg of antimicrobial agent/mL of buffer
  MIC: 2 µg/mL
S. aureus [5]
  interaction with sodium bicarbonate (checkerboard): synergistic interactions

## CN(C)C(=O)C(CCN1CCC(O)(c2ccc(Cl)cc2)CC1)(c1ccccc1)c1ccccc1 [loperamide]
E. coli [1]
  interaction with sodium bicarbonate (checkerboard): synergistic interactions

## O=P([O-])([O-])[O-].[Na+].[Na+].[Na+] [trisodium phosphate]
[8]; pH not adjusted (pH~10)
  effect on activity of dirithromycin, pH not adjusted: potentiated the activity of dirithromycin
[8]; pH of the medium adjusted to 7.2
  effect on activity of dirithromycin, pH adjusted: loss of synergy

## CC(C)[C@@H]1NC(=O)[C@H](C)OC(=O)[C@@H](C(C)C)NC(=O)[C@@H](C(C)C)OC(=O)[C@H](C(C)C)NC(=O)[C@H](C)OC(=O)[C@@H](C(C)C)NC(=O)[C@@H](C(C)C)OC(=O)[C@H](C(C)C)NC(=O)[C@H](C)OC(=O)[C@@H](C(C)C)NC(=O)[C@@H](C(C)C)OC1=O [valinomycin]
S. aureus [5]
  interaction with sodium bicarbonate (checkerboard): synergistic interactions

## Spiramycin
E. coli [1]
  interaction with sodium bicarbonate (checkerboard): synergistic interactions
E. coli [3]
  MIC, E. coli, MHB+: 64 μg of antimicrobial agent/mL of buffer
E. coli [3]; [10]
  MIC, E. coli, MHB−: >128 μg of antimicrobial agent/mL of buffer
E. coli [3]; [12]
  Fold, E. coli: 8
S. aureus [4]; [10]
  MIC, S. aureus, MHB−: 16 μg of antimicrobial agent/mL of buffer
S. aureus [4]; antibiotic agents, MHB in the presence of 25 mM sodium bicarbonate
  MIC, S. aureus, MHB+: 0.5 μg of antimicrobial agent/mL of buffer
S. aureus [4]; [12]
  Fold, S. aureus: 16
S. aureus [5]
  interaction with sodium bicarbonate (checkerboard): synergistic interactions
